Assay results as given in patent publication US10752589B2, “Trigonelline based compounds” (SPHAERA PHARMA PVT. LTD., priority 2016, dated 2020).
Values after ≈ are worked out from the molar mass of the structure shown. “Also recorded” adds a separate entry of the source. Like-named read-outs stand apart in the source and are kept apart here. Each block holds one molecule with its values, some of them ahead of it.

Columns and labels:
[1] = Solubility in miliQ water by HPLC (area under the curve); type: physicochemical
Description: 1 mg/ml and 2 mg/ml solution of Mefloquine and Tadlafil respectively and equivalent weight of respective trigonelline modified compound (1011), compound (1005) of the present invention was taken in miliQ water, vortexed, centrifuged for 3 min, filtered and loaded on HPLC column (Zorbax Eclipse C18; Mobile Phase: A: 0.1% TFA, B: ACN; run time 15 min, Waters 2996 HPLC model).

[2] = Solubility of Paclitaxel modified drug in saline solvent systems by HPLC; conditions: for Fold increase in solubility: versus Paclitaxel; for Solubility compared with parent drug: aqueous solubility; for solubility: thermodynamic from solid
Description: Solubility was checked in different solvent systems.
Area under the curve for each were determined and based on that fold increase in solubility was determined.

[3] = Stability and solubility in dosing vehicle PEG400 and Normal saline; type: physicochemical; conditions: PEG400 and Normal saline in fixed composition
[4] = Pharmacokinetics in SD rats, IV dosing (Paclitaxel and 1001)
Description: Pharmacokinetics studies were carried out to evaluate the plasma exposure of modified drug of Paclitaxel in SD rats when dosed intravenously (IV). The results were compared with exposure of Paclitaxel using the same dosing vehicle. The dosing vehicle that was used in this study was PEG400 and Normal saline in fixed composition. […] 3 mpk and 1 mpk IV dosing was done for the modified drug and 3 mpk IV for Paclitaxel parent drug. After IV dosing of the modified drug blood was collected by serial bleeding at different time points in heparinized tubes. Blood samples were centrifuged at 10,000 rpm for 5 min at 4° C. to obtain the plasma, which were aspirated into separate labeled tubes and stored at −80° C. Extraction solvent was added to plasma, was vortexed and shaken on shaker for 10 minutes, centrifuged at 10,000 rpm for 10 minutes at 4° C. Supernatant was kept for analysis.
Acetonitrile and plasma calibration curves were generated and percentage of drug recovery from plasma determined Quantitative analysis was done by liquid chromatography tandem mass spectrometer (API3000 LC-MS/MS).

[5] = Pharmacokinetics in SD rats, IV dosing (Docetaxel and 1008); type: in vivo; conditions: for AUC / Cmax / Tmax / half-life: Sprague-Dawley, rat, plasma, PEG400 and Normal saline; for half-life: read-out: T1/2 elimination (converted)
From the text: The results were compared with exposure of Docetaxel (10 mpk) using the same dosing vehicle.
Supernatant was kept for analysis.

[6] = concentration used for HPLC analysis 1 mg/ml
[7] = 3 mg/Kg iv, PEG/Normal Saline (3 mpk 1001 = 2.1 mpk Paclitaxel delivered)
[8] = concentration used for HPLC analysis 2 mg/ml

SMILES: OC(c1cc(C(F)(F)F)nc2c(C(F)(F)F)cccc12)C1CCCCN1 (stereo not shown) [Mefloquine, reference compound]
solubility [1, 6]: Poor

SMILES: CC(=O)O[C@H]1C(=O)C2(C)C([C@H](OC(=O)c3ccccc3)[C@]3(O)C[C@H](OC(=O)[C@H](OC(=O)c4ccc[n+](C)c4)[C@H](NC(=O)c4ccccc4)c4ccccc4)C(C)=C1C3(C)C)[C@]1(OC(C)=O)CO[C@@H]1C[C@@H]2O.[I-] (stereo partly drawn) [Compound 1001, 3-((((1R,2R)-1-benzamido-3-(((2aR,4S,6R,9S,11S,12S,12bS)-6,12b-diacetoxy-12-(benzoyloxy)-4,11-dihydroxy-4a,8,13,13-tetramethyl-5-oxo-2a,3,4,4a,5,6,9,10,11,12,12a,12b-dodecahydro-1H-7,11-methanocyclodeca[3,4]benzo[1,2-b]oxet-9-yl)oxy)-3-oxo-1-phenylpropan-2-yl)oxy)carbonyl)-1-methylpyridin-1-ium iodide]
Fold increase in solubility ([2]; Normal Saline with 5% Dimethylacetamide): > 10,000 ×
Fold increase in solubility ([2]; Normal Saline with 5% Dimethylsulfoxide): > 12,000 ×
Fold increase in solubility ([2]; Normal Saline with 9% N-Methylpyrrolidone): > 15,000 ×
Fold increase in solubility ([2]; Normal Saline): > 5000 ×
Solubility compared with parent drug [2]: increased solubility; also recorded: better aqueous solubility
solubility ([2]; aqueous with cosolvent or surfactant or cyclodextrin, Solubility in 5% DMA in normal saline, 5% DMA in normal saline): ~1000 µg/mL
solubility ([2]; aqueous with cosolvent or surfactant or cyclodextrin, Solubility in 5% DMSO in Normal saline, 5% DMSO in Normal saline): > 1200 µg/mL
solubility ([2]; aqueous with cosolvent or surfactant or cyclodextrin, Solubility in 9% NP in Normal Saline, 9% NP in Normal Saline): > 1500 µg/mL
solubility ([2]; saline or isotonic, Solubility in Normal saline, Normal saline): > 500 µg/mL
Stability in the selected solvents ([2]; selected solvent systems in normal saline): stable
Stability and solubility in the dosing vehicle [3]: stable and soluble
Cmax ([4]; 1 mg/Kg iv, PEG/Normal Saline (1 mpk 1001 = 0.71 mpk Paclitaxel delivered)): 2384 nm
Cmax [4, 7]: 8620 nm
Fold increase in the AUC ([4]; iv, versus Paclitaxel): more than 10 fold
Fold increase in the Cmax ([4]; iv, versus Paclitaxel): more than 80 folds

SMILES: C[n+]1cccc(C(=O)N2CCCC[C@@H]2[C@@H](O)c2cc(C(F)(F)F)nc3c(C(F)(F)F)cccc23)c1 [Compound 1011, 3-((R)-2((S)-(2,8-bis(trifluoromethyl)quinolin-4 yl)(hydroxy)methyl)piperidine-1-carbonyl)-1-methylpyridin-1-ium]
Aqueous solubility over parent drug [1]: significant increase
Fold increase in solubility for equiv. wt of DM using HPLC ([1]; 1 mg/ml, versus parent Mefloquine): 2.4 fold
solubility [1, 6]: Completely

SMILES: CC(=O)O[C@@]12CO[C@@H]1C[C@H](O)[C@@]1(C)C(=O)[C@H](O)C3=C(C)[C@@H](OC(=O)[C@H](OC(=O)c4ccc[n+](C)c4)[C@@H](NC(=O)OC(C)(C)C)c4ccccc4)C[C@@](O)([C@@H](OC(=O)c4ccccc4)[C@H]21)C3(C)C.[I-] [Compound 1008, 3-((((2R,3S)-1-(((2aR,4S,4aS,6R,9S,11S,12S,12aR,12bS)-12b-acetoxy-12-(benzoyloxy)-4,6,11-trihydroxy-4a,8,13,13-tetramethyl-5-oxo-2a,3,4,4a,5,6,9,10,11,12,12a,12b-dodecahydro-1H-7,11-methanocyclodeca[3,4]benzo[1,2-b]oxet-9-yl)oxy)-3-((tert-butoxycarbonyl)amino)-1-oxo-3-phenylpropan-2-yl)oxy)carbonyl)-1-methylpyridin-1-ium iodide]
Solubility compared with parent drug [2]: better aqueous solubility
Exposure compared to the parent drug ([5]; IV, 1008 3 mpk versus Docetaxel 10 mpk): significantly higher exposure
Pharmacokinetics compared to the original compound ([5]; IV, versus Docetaxel): enhanced pharmacokinetics
AUC ([5]; 3 mg/kg, 3 mpk IV): 1.04 µM·h
Cmax ([5]; 3 mg/kg, 3 mpk IV): 6.92 µM
Tmax ([5]; 3 mg/kg, 3 mpk IV): 4.8 min
half-life ([5]; 3 mg/kg, 3 mpk IV): 107 min
Stability and solubility in the dosing vehicle [3]: stable and soluble

Results, then the molecule that gave them:

solubility [1, 8]: Very poor
SMILES: CN1CC(=O)N2[C@H](c3ccc4c(c3)OCO4)c3[nH]c4ccccc4c3C[C@@H]2C1=O [Tadalafil, reference compound]

Aqueous solubility over parent drug [1]: significant increase
Fold increase in solubility for equiv. wt of DM using HPLC ([1]; 2 mg/ml, versus parent Tadalafil): 80 fold
solubility [1, 8]: Completely
SMILES: CN1CC(=O)N2[C@H](c3ccc4c(c3)OCO4)c3c(c4ccccc4n3C(=O)c3ccc[n+](C)c3)C[C@@H]2C1=O [Compound 1005, 3-((6R,12aR)-6-(benzo[d][1,3]dioxol-5-yl)-2-methyl-1,4-dioxo-1,2,3,4,6,7,12,12a-octahydropyrazino[1′,2′:1,6]pyrido[3,4-b]indole-7-carbonyl)-1-methylpyridin-1-ium iodide]

AUC ([5]; 10 mg/kg, 10 mpk IV): 0.897 µM·h
Cmax ([5]; 10 mg/kg, 10 mpk IV): 0.495 µM
Tmax ([5]; 10 mg/kg, 10 mpk IV): 4.8 min
half-life ([5]; 10 mg/kg, 10 mpk IV): 124 min
SMILES: CC(=O)O[C@@]12CO[C@@H]1C[C@H](O)[C@@]1(C)C(=O)[C@H](O)C3=C(C)[C@@H](OC(=O)[C@H](O)[C@@H](NC(=O)OC(C)(C)C)c4ccccc4)C[C@@](O)([C@@H](OC(=O)c4ccccc4)[C@H]21)C3(C)C [Docetaxel, reference compound]

Solubility in 5% DMA in normal saline ([2]; 5% DMA in normal saline): Not soluble
Solubility in 5% DMSO in Normal saline ([2]; 5% DMSO in Normal saline): Not soluble
Solubility in 9% NP in Normal Saline ([2]; 9% NP in Normal Saline): Not soluble
solubility ([2]; normal saline, saline or isotonic, Solubility in Normal saline): 0.1 µg/mL (≈ 0.117 µM)
Cmax [4, 7]: 104 nm
SMILES: CC(=O)O[C@H]1C(=O)[C@@]2(C)[C@H]([C@H](OC(=O)c3ccccc3)[C@]3(O)C[C@H](OC(=O)[C@H](O)[C@@H](NC(=O)c4ccccc4)c4ccccc4)C(C)=C1C3(C)C)[C@]1(OC(C)=O)CO[C@@H]1C[C@@H]2O [Paclitaxel, reference compound]
